Experimental data: publication PMC4433340 (PLoS Neglected Tropical Diseases, 2015)
Read-outs that look alike come from different tables or passages of the source.

What was measured:
[1] = test system: E-selectin, ICAM-1 and VCAM-1 expression on T. cruzi-infected EA.hy926 and HUVEC cells; assay: Endothelial cell adhesion molecule surface expression by flow cytometry / immunofluorescence; format: cell-based, human; details: 5 μM simvastatin or 20 μM benznidazole for 24 hours before 16 hours T. cruzi infection (MOI 10); EA.hy926 and HUVEC
Protocol: Then, cells were infected with trypomastigotes at a MOI of 10 and incubated for 16 hours. Cells were detached with 1X EDTA-PBS at 0.5 mM. The harvested cells were washed with cold PBS and centrifuged at 800 x g for 5 minutes. Then, cells were washed with flow cytometry buffer three times. 100 μL of cell suspensions were incubated for 45 min at 4°C in the dark with mouse monoclonal anti- human E-selectin (5 μL undiluted), ICAM-1(3 μL undiluted), and VCAM-1 (1 μL undiluted) that were conjugated with PE, FITC and APC, respectively (BioLegend, USA). Cell suspensions were analyzed by flow cytometry using a FACSAria-III flow cytometer (BD Biosciences, USA). A homogeneous cell population was selected by size vs. granularity in log scale for these two conditions.
2x10^4 EA.hy926 cells/slide were seeded in Lab-Tek II Chamber Slide^TM (ThermoScientific, USA) and allowed to adhere overnight. […] After 16 hours of infection, cells were fixed in 4% formaldehyde–0.1 M phosphate buffer (pH 7.3) for 10 min. Cells were blocked with 3% bovine serum albumin for 1 hour. Then, cells were incubated with monoclonal antibodies against E-selectin (1:100), VCAM-1 (1:250) and ICAM-1 (1:100) (from Abcam, UK) overnight at 4°C. The samples were washed with PBS and incubated with anti-rabbit IgG that had been conjugated with fluorescein (1:100) from Sigma-Aldrich for 1 h. Finally, nuclei were stained with DAPI for 5 minutes and mounted with Dako Fluorescence Mounting (Dako, USA). The cells were photographed using a Nikon Eclipse 400 fluorescence microscope (Nikon, Japan), and images were analyzed by mean intensity using ImageJ software (ImageJ 1.47v).

EA.hy926 cells = assay: Cell viability by MTT reduction assay, EA.hy926 cells; format: cell-based; details: Homo sapiens, EA.hy 926, 24 hours incubation, mean ± SD, n = 3, read-out: IC50, cellular viability, EA.hy926 cells
Protocol: EA.hy926 cells (ATCC CRL2922) are a human umbilical vein cell line established by fusing primary human umbilical vein cells with a thioguanine-resistant clone of A549 by exposure to polyethylene glycol (PEG). Hybrid clones were selected in HAT medium and screened for factor VIII-related antigen. The cell line was cultured following reported conditions. Cells were cultured on Iscove's Modified Dulbecco's Medium (IMDM, Biological Industries, Israel) supplemented with 10% v/v FBS, 100 U/mL penicillin, and […] streptomycin at 37°C and 5% CO2.
(§1) The effect of the drug on all cells and parasite viability was evaluated through the tetrazolium salt (MTT, Sigma-Aldrich) reduction assay as described. […] Cultures were incubated for 24 hours before adding MTT for 4 hours. The plates were incubated overnight with 10% SDS w/v in 0.01 M HCl at 37°C, and optical density (OD) was determined using a microplate reader (Labsystems Multiskan MS, Finland) at 570 nm. Under these conditions, the OD was directly proportional to viable cell number per well. All of the experiments were performed at least three times, and the data are shown as the means and their standard deviations from triplicate cultures.

Trypomastigotes Dm28c = assay: Parasite viability by MTT reduction assay, trypomastigotes; format: cell-based; details: Trypanosoma cruzi, read-out: IC50, cellular viability, Trypomastigotes Dm28c
Protocol: T. cruzi trypomastigotes (Dm28c clone) from our collection, were obtained from infected EA.hy926 cells. Cells were exposed to trypomastigotes (Dm28c clone) at a multiplicity of infection (MOI) of 5. Trypomastigotes were allowed to infect cells for 24 hours, after which the supernatant was removed and fresh medium was added. Trypomastigotes were released from EA.hy926 cells after four days of infection. The parasites were harvested and collected for viability assays and further cell infections.
The effect of the drug on all cells and parasite viability was evaluated through the tetrazolium salt (MTT, Sigma-Aldrich) reduction assay as described. Drugs at concentrations ranging from 1 to 20 μM, dissolved in DMSO at a 0.025% v/v final concentration, were applied to 2.5x10^5 cells/mL or 10^6 parasite/mL culture medium. Cultures were incubated for 24 hours before adding MTT for 4 hours. The plates were incubated overnight with 10% SDS w/v in 0.01 M HCl at 37°C, and optical density (OD) was determined using a microplate reader (Labsystems Multiskan MS, Finland) at 570 nm. Under these conditions, the OD was directly proportional to viable cell number per well. All of the experiments were performed at least three times, and the data are shown as the means and their standard deviations from triplicate cultures.

HUVEC = assay: Cell viability by MTT reduction assay, HUVEC; format: cell-based; details: Homo sapiens, 24 hours incubation, mean ± SD, n = 3, read-out: IC50, cellular viability, HUVEC
Protocol: HUVECs (C-015-10C, Cascade Biologics, Life Technologies, USA) are primary human umbilical vein endothelial cells that are pooled from multiple donors. Cells were cultured in medium 200 (Cascade Biologics, USA) that had been supplemented with low serum growth supplement (LSGS, Cascade Biologics).
as §1

Compound | E-selectin, ICAM-1 and VCAM-1 surface expression [1] | IC50 (EA.hy926 cells) | IC50 (Trypomastigotes Dm28c; 24 h) | IC50 (HUVEC) | IC50 (Trypomastigotes Dm28c; MTT assay, 24 hours incubation, mean ± SD, n = 3)
O=C(Cn1ccnc1[N+](=O)[O-])NCc1ccccc1 [Benznidazole] | prevent cell adhesion molecule expression | < 100 µM | 20.8 ± 1.35 µM | < 100 µM | 
CCC(C)(C)C(=O)O[C@H]1C[C@@H](C)C=C2C=C[C@H](C)[C@H](CC[C@@H]3C[C@@H](O)CC(=O)O3)[C@H]21 [Simvastatin] |  | 65.4 ± 1.02 µM |  | 84.4 ± 1.56 µM | 4.2 ± 1.06 µM
